pIC50: −log10 of the molar value.
Assays:
[1] = tested on: MDA-MB-453 cells (low P-STAT3); assay: WST cell proliferation assay, MDA-MB-453; assay type: cell-based, human; settings: 0.1-100 μM, 48 h, WST-8
Experimental: (§1) Cells were plated in a 96-well tissue culture plate (1000 cells per well) and incubated for 48 h. After incubation, the cells were treated with vehicle, 0.1–100 μM BENDA, or HP2 for 48 h. Samples were assayed in triplicate. After incubation, WST-8 solution (10 μL; Dojindo Molecular Technologies, Rockville, MD, USA) was added to each well and incubated at 37°C for 4 h, and the absorbance was read at 450 nm.

[2] = biological target: T1, STAT3-DNA complex (c-myc promoter) in MDA-MB-468 cells (Homo sapiens, UniProt P40763); assay: ChIP assay, c-myc promoter binding by STAT3; assay type: cell-based; settings: MDA-MB-468, 8 h; BENDA 25, 50, 100 μM, HP2 50, 100 μM
T1 construct: endogenous in cells; host or cells: MDA-MB-468
Experimental: A ChIP assay was performed with an ExactaChIP Human/Mouse STAT3 ChIP kit (R&D Systems, Minneapolis, MN, USA). MDA-MB-468 cancer cells were fixed with 1% formaldehyde and treated with the lysis buffer. After sonication, anti-STAT3 antibody or normal mouse IgG was added to the extract, followed by precipitation with Protein G Plus/Protein A Agarose Suspension. The eluted DNA fraction was used for PCR with human c-myc primers.

[3] = biological target: T2, STAT3-CFP / STAT3-YFP in HEK293 cells (Homo sapiens, UniProt P40763); assay: FRET assay of STAT3 dimerization; assay type: cell-based; settings: HEK293, 10, 20 or 50 μM, pretreatment before 50 ng/mL IL-6 stimulation
T2 construct: expressed in transfected cells; host or cells: HEK293
Experimental: The expression vectors for the fusion proteins STAT3-CFP and STAT3-YFP were prepared by the addition of STAT3 cDNA to pAmCyan1-N1 and pZsyellow1-N1. The vector mixture (1:1) was transfected into HEK293 cells with Lipofectamine 2000. The cells were cultured with 2% FBS DMEM for 48 h in a 96-well microtiter plate, treated with 0, 10, 20, or 50 μM BENDA or HP2 in a final DMSO concentration of 0.2% for 24 h, and then stimulated with 50 ng/mL IL-6 for a further 1 h. Fluorescence signals were measured (SpectraMax M5SK). The signals measured by FRET (excitation/emission: 436/528 nm) were corrected for crosstalk signals from cyan (excitation/emission: 436/488 nm) and yellow (excitation/emission: 517/528 nm).

[4] = biological target: T3, cellular STAT3 in MDA-MB-468 cells (Homo sapiens, UniProt P40763); assay: Pull-down assay using Bio-BENDA, anti-STAT3 immunoprecipitation; assay type: cell-based; settings: 50 μM Bio-BENDA plus excess free drug, 4 h
T3 construct: endogenous in cells; host or cells: MDA-MB-468
Experimental: MDA-MB-468 cells were treated with biotinylated BENDA (Bio-BENDA) in the presence or absence of an excess amount of free drugs for 4 h and then lysed in PhosphoSafe™ Extraction Reagent (Merck, Darmstadt, Germany). Lysate (200 μL) was precleared with a mixture of Protein G Plus/Protein A Agarose Suspension (EMD Millipore, Billerica, MA, USA) for 1 h at 4°C and protein A and G agarose were removed by centrifugation at 13,000 rpm for 10 min. The lysate (200 μL) was immunoprecipitated with STAT3 antibody (1 μL) overnight at 4°C on a shaker and the immunocomplex was captured by the addition of a Protein G Plus/Protein A Agarose Suspension (30 μL) slurry for 1 h at 4°C. Samples were washed five times with lysis buffer and then boiled four times in SDS-PAGE sample buffer and run on an SDS-PAGE gel. The protein was transferred to a nitrocellulose membrane. The membranes were blocked in 5% skim milk in TBS/0.1% Tween 20. They were then incubated with streptavidin-HRP diluted at 1:2000 in 1.5% skim milk in TBS (pH7.4)/0.1% Tween 20 overnight at 4°C. Immunoblots were developed by using a chemiluminescent substrate.

[5] = biological target: T4, recombinant human STAT3 SH2 domain (Homo sapiens, UniProt P40763); assay: AlphaScreen SH2 binding assay, STAT3; settings: AlphaScreen, 50 nM protein, FITC-GpYLPQTV; read-out: IC50, inhibition of STAT3-SH2 binding to phosphotyrosine peptide
T4 construct: Full-length cDNAs were obtained from a human cDNA library by PCR; Avi-tag (biotinylated in BirA-BL21) (N); made in house; host or cells: Escherichia coli BirA-BL21
Experimental: AlphaScreen assays were performed in a final reaction volume of 25 μL of the assay buffer, containing 10 mM HEPES-NaOH (pH 7.4), 50 mM NaCl, 1 mM EDTA (pH 8.0), 0.1% NP-40, and 10 ng/mL BSA in a 96-well microtiter plate at 25°C. The labeled Phospho-Tyr (pTyr) peptide probe was 5-carboxyfluorescein (FITC)-GpYLPQTV for STAT3, FITC-GpYDKPHVL for STAT1, and FITC-PSpYVNVQN for Grb2. A DMSO solution of BENDA was incubated with 50 nM of each SH2-containing protein for 15 min, 50 nM of the corresponding FITC-pTyr peptide was added, and the mixture was incubated for 90 min. Streptavidin-coated donor beads and anti-FITC acceptor beads were added and incubated for 90 min before the signals were measured with an Envision Xcite plate reader (PerkinElmer Life Sciences, Waltham, MA, USA).

rhSTAT3 = biological target: T5, rhSTAT3 (Homo sapiens, UniProt P40763); assay: Competition assay with cysteine-blocking reagent Alexa Fluor 488 C5 maleimide; assay type: binding; settings: 50 or 100 μM compound, 2 h
T5 construct: Full-length cDNAs were obtained from a human cDNA library by PCR; Avi-tag (biotinylated in BirA-BL21) (N); made in house; host or cells: Escherichia coli BirA-BL21
Experimental: rhSTAT3 (0.89 μM) in 100 mM HEPES was incubated with 10 μM Alexa Fluor 488 C5 maleimide (Invitrogen, Paisley, UK), a thiol-reactive probe, in the presence or absence of 50 or 100 μM BENDA or HP2 for 2 h at room temperature. Samples were diluted in SDS-PAGE sample buffer without boiling or 2-mercaptoethanol and run on an SDS-PAGE gel. The protein was transferred to a nitrocellulose membrane and then blotted with Ni-HRP. The Alexa-labeled rhSTAT3 was analyzed by fluorescence (excitation/emission: 493/516 nm) and western blotting with Ni-HRP.

[6] = biological target: T6, nuclear STAT3 of MDA-MB-468 cells (Homo sapiens, UniProt P40763); assay: STAT3 DNA binding assay (TransAM ELISA); assay type: cell-based; settings: MDA-MB-468, 24 h; BENDA 25, 50, 100 μM, HP2 100 μM
T6 construct: endogenous in cells; host or cells: MDA-MB-468
Experimental: The DNA-binding activity of STAT3 was evaluated with a TransAM ELISA kit (Active Motif, Carlsbad, CA, USA). The assay and nuclear extract preparation were performed according to the manufacturer’s instructions. Heat-denatured nuclear extract was used as a negative control. The nuclear extract (20 μg) was added to each well of a 96-well microtiter plate coated with immobilized oligonucleotides containing the STAT3 consensus binding site and incubated at room temperature for 1 h. They were incubated with anti-STAT3 antibody for 1 h at room temperature, followed by HRP-conjugated antibody for 1 h at room temperature. The developing solution was added, the reaction was terminated by the addition of stop solution, and the absorbance was measured at 450 nm with a reference wavelength of 655 nm (SpectraMax M5SK, Molecular Devices, Sunnyvale, CA, USA).

[7] = tested on: MDA-MB-468 cells (high P-STAT3); assay: WST cell proliferation assay, MDA-MB-468; assay type: cell-based, human; settings: 0.1-100 μM, 48 h, WST-8
Experimental: as §1

T4 sequence (P40763 whole entry, the tested form may be a part): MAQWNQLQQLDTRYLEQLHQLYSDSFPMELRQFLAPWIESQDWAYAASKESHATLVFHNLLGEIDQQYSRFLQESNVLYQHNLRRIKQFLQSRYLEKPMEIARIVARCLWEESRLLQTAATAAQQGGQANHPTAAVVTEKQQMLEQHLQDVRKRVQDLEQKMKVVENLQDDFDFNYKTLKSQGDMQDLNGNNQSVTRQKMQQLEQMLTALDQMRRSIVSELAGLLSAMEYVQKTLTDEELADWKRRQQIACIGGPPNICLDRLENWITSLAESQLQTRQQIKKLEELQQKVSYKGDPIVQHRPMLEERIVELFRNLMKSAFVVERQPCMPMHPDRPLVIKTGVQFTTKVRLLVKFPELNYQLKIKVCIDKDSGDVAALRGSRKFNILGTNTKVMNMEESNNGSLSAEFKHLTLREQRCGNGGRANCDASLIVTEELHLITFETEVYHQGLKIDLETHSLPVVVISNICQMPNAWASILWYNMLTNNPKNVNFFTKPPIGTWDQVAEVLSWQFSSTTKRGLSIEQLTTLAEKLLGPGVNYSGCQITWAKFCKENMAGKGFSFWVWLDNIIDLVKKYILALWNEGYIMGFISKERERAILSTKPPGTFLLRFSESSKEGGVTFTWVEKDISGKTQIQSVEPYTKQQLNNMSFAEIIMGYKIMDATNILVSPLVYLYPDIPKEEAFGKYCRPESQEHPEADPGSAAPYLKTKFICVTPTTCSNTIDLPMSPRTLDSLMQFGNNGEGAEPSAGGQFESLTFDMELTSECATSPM
T2 sequence (P40763 whole entry): as the sequence (P40763 whole entry, the tested form may be a part) above
T5 sequence (P40763 whole entry): as the sequence (P40763 whole entry, the tested form may be a part) above
T1 sequence (P40763 2-770 limits assumed, one chain of several): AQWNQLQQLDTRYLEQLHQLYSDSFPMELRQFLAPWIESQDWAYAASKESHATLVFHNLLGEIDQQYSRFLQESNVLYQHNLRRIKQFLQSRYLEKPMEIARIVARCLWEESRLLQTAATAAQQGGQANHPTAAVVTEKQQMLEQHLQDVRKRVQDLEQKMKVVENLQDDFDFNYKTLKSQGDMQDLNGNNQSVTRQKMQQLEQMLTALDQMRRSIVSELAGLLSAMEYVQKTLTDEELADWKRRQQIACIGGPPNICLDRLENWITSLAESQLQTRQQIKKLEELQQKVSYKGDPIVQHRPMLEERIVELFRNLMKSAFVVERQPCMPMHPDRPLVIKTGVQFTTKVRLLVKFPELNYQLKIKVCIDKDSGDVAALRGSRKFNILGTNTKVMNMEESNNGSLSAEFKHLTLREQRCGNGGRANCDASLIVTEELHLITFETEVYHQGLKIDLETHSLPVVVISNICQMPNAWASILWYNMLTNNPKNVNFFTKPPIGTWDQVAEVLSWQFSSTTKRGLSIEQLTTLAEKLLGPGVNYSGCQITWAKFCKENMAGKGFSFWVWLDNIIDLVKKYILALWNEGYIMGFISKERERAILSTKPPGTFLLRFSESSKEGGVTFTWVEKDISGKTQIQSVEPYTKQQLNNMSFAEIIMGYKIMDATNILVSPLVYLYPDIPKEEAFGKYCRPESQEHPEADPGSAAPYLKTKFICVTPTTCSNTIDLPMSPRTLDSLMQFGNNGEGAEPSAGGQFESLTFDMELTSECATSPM
T6 sequence (P40763 2-770 limits assumed): as the sequence (P40763 2-770 limits assumed, one chain of several) above
T3 sequence (P40763 2-770 limits assumed): as the sequence (P40763 2-770 limits assumed, one chain of several) above

Cn1c(CCCC(=O)O)nc2cc(N(CCO)CCO)ccc21 [HP2, dihydroxy bendamustine]
Inhibition of proliferation of MDA-MB-453 cells [1]: did not inhibit proliferation
Amplified c-myc promoter band in STAT3 ChIP [2]: clearly detected
Effect on FRET signals (STAT3 dimerization) [3]: unchanged
Competition of Bio-BENDA STAT3 band intensity by excess free drug [4]: no reduction
pIC50 [5]: < 4.00
Effect on fluorescence intensity of Alexa-labeled rhSTAT3 (rhSTAT3): hardly observed
Inhibition of STAT3 binding to oligonucleotides containing STAT3 consensus binding site [6]: did not
Inhibition of proliferation of MDA-MB-468 cells [7]: did not inhibit proliferation
